Source: US20230339834A1, “CHLORINATED FLUOROAROMATICS AND METHODS OF USING SAME” (3M INNOVATIVE PROPERTIES COMPANY, priority 2019, published 2023)

What was measured:
[1] = assay type: physicochemical
Description: The boiling points reported in Table 1 were determined using the procedures outlined in ASTM E 1719-97 “Standard Test Method for Vapor Pressure of Liquids by Ebulliometry.” First, vapor pressure was measured, and then the boiling point was calculated as described in section 10 of ASTM method […]-97.

[2] = Density (DDM 2911 plus Automatic Density Meter); assay type: physicochemical
Description: Density was measured using DDM 2911 plus Automatic Density Meter. Before measurement, the fluid was briefly degassed in the syringe by stoppering the syringe tip and pulling on the plunger to release bubbles.

[3] = Flash point, small scale closed cup (ASTM D-3278-96 e-1); assay type: physicochemical; conditions: no flash point = non-flammable
[4] = Kinematic viscosity (ASTM D445-94e1); assay type: physicochemical
Description: Kinematic viscosity was determined in accordance with ASTM D445-94e1 “Standard Test Method for Kinematic Viscosity of Transparent and Opaque Liquids (the Calculation of Dynamic Viscosity)”, except the bath temperature was controlled to ±0.1° C., using a ViscoSystem AVS 350 viscosity timer (Schott Instruments GmbH, Hattenbergstraße 10 55122 Mainz Germany) and Hagenbach-corrected 545-03, 545-13 or 545-20 Ubbelohde viscometers (Cannon Instruments Company, Box 812, State College, PA). For temperatures below 0° C., a Lawler temperature control bath was used.

[5] = Dielectric constant (ASTM D150-11, broadband dielectric spectrometer); assay type: physicochemical
Description: Dielectric constants were measured using an Alpha-A High Temperature Broadband Dielectric Spectrometer (Novocontrol Technologies, Montabaur, Germany) in accordance with ASTM D150-11, “Standard Test Methods for AC Loss Characteristics and Permittivity (Dielectric Constant) of Solid Electrical Insulation.” The parallel plate electrode configuration was selected for this measurement. The sample cell of parallel plates, an Agilent 16452A liquid test fixture consisting of 38 mm diameter parallel plates (Keysight Technologies, Santa Rosa, CA, US) was interfaced to the Alpha-A mainframe while utilizing the ZG2 Dielectric/Impedance General Purpose Interface available from Novocontrol Technologies. Each sample was prepared between parallel plate electrodes with a spacing, d, (typically, d=1 mm) and the complex permittivity (dielectric constant and loss) were evaluated from the phase sensitive measurement of the electrodes voltage difference (Vs) and current (Is). Frequency domain measurements were carried out at discrete frequencies from 0.00001 Hz to 1 MHz. Impedances from 10 milliohms up to 1×10^14 ohms were measured up to a maximum of 4.2 volts AC. For this experiment, however, a fixed AC voltage of 1.0 volts was used. The DC conductivity (the inverse of volume resistivity) can also be extracted from an optimized broadband dielectric relaxation fit function that contains at least one term of the low frequency Havrrilak Negami dielectric relaxation function and one separate frequency dependent conductivity term.

[6] = Liquid dielectric breakdown strength (ASTM D877-87); assay type: physicochemical; conditions: 2.5 mm gap, 60 Hz
Description: The liquid dielectric breakdown strength measurements were performed in accordance with ASTM […]-87(1995), “Standard Test Method for Dielectric Breakdown Voltage of Insulating Liquids.” Disk electrodes 25mm in diameter, with 2.5 mm (0.10'') spacing between the electrodes, were utilized with a Phenix Technologies Model LD 60 that is specifically designed for testing in the 7-60 kV, 60 Hz (higher voltage) breakdown range. For this experiment, a frequency of 60 Hz and a ramp rate of 500 volts per second were utilized, as is typical.

[7] = Log KOW octanol/water partition coefficient by HPLC (OECD 117); assay type: physicochemical; conditions: HPLC method
Description: Values of Log KOW (octanol/water partition coefficients) were determined by HPLC using the method described in Organization for Economic Cooperation and Development (OECD) Test Method 117, “Partition Coefficient (n-octanol/water), HPLC Method.”

[8] = assay type: physicochemical; conditions: 200±2° C., 31.5 days, sealed borosilicate tube
Description: To evaluate thermal stability, a flame-sealed borosilicate glass tube (50 mm outer diameter, 0.4 mm wall thickness) containing Example 1 [1.0 g, isomeric mixture of 4-Cl(C6H4)O(C9F17)] was completely submerged in a temperature-controlled oil bath at 200±2° C. for 31.5 days.

Row | SMILES | Boiling Point [1] | Boiling point above non-chlorinated analog [1] | Density at 25° C. [2] | Flash Point [3] | Viscosity at 0° C. [4] | Dielectric Constant @ 1 kHz [5] | Dielectric strength [6] | Log Kow [7] | 4-Cl(C6H4)O(C9F17) isomers by GC-FID, before and after heating [8]
1 | F/C(=C(/C(F)(F)F)C(F)(Oc1cc(Cl)cc(Cl)c1)C(F)(F)C(F)(F)F)C(F)(C(F)(F)F)C(F)(F)F (centres unmarked) [Ex. 3, (E)-1,3-dichloro-5-((1,1,1,2,2,3,5,6,7,7,7-undecafluoro-4,6-bis(trifluoromethyl)hept-4-en-3-yl)oxy)benzene] | 237 °C | 35 °C | 1.70 g/mL | None | 40.8 cSt | 2.54 | – | – | –
2 | F/C(=C(/C(F)(F)F)C(F)(Oc1ccccc1)C(F)(F)C(F)(F)F)C(F)(C(F)(F)F)C(F)(F)F (centres unmarked) [CE1, (E)-((1,1,1,2,2,3,5,6,7,7,7-Undecafluoro-4,6-bis(trifluoromethyl)hept-4-en-3-yl)oxy)benzene] | 201 °C | – | 1.62 g/mL | None | 8.7 cSt | 4.42 | 38.1 kV | >6.4 | –
3 | FC(F)(F)C(=C(Oc1ccccc1)C(F)(F)C(F)(F)F)C(F)(F)F [CE2] | 169 °C | – | 1.51 g/mL | None | 3.6 cSt | 5.16 | 31.1 kV | 5.5 | –
4 | FC(F)(F)C(=C(Oc1ccc(Cl)cc1)C(F)(F)C(F)(F)F)C(F)(F)F [Ex. 2, 1-chloro-4-((1,1,1,4,4,5,5,5-octafluoro-2-(trifluoromethyl)pent-2-en-3-yl)oxy)benzene] | 193 °C | at least 22 °C | 1.58 g/mL | None | 8.4 cSt | 2.76 | 50.7 kV | – | –
5 | F/C(=C(/C(F)(F)F)C(F)(Oc1ccc(F)cc1)C(F)(F)C(F)(F)F)C(F)(C(F)(F)F)C(F)(F)F (centres unmarked) [CE3, (E)-1-fluoro-4-((1,1,1,2,2,3,5,6,7,7,7-undecafluoro-4,6-bis(trifluoromethyl)hept-4-en-3-yl)oxy)benzene] | 206 °C | 5 °C | 1.68 g/mL | None | 11.8 cSt | 2.63 | 38.1 kV | >6.4 | –
6 | F/C(=C(/C(F)(F)F)C(F)(Oc1ccc(Cl)cc1)C(F)(F)C(F)(F)F)C(F)(C(F)(F)F)C(F)(F)F (centres unmarked) [Ex. 1, (E)-1-chloro-4-((1,1,1,2,2,3,5,6,7,7,7-undecafluoro-4,6-bis(trifluoromethyl)hept-4-en-3-yl)oxy)benzene] | 223 °C | at least 22 °C | 1.65 g/mL | None | 24.1 cSt | 2.57 | 46.6 kV | >6.4 | 99.9±0.1%
